{"source": "patent US20080039410A1", "about": "“Inositol 1,4,5-Trisphosphate Receptor Mutants and Uses Thereof” (priority 2004, published 2008)", "key": {"[1]": {"system": "S2− InsP3R-1", "assay": "Potentiation of CCh-induced Ca2+ release after PKA activation (forskolin), S2− InsP3R-1 constructs in DT-40 3ko cells", "format": "cell-based, rat", "conditions": "for effect of forskolin treatment on CCh-induced [Ca^2+]i peak: threshold CCh; for Ca^2+ release after PKA activation: S2 − InsP3R-1 constructs, Table 2", "experimental": "(§1) DT-40 cells lacking all three InsP3 receptor subtypes DT-40 3ko were transfected using electroporation, 350 V and 950 μF. 2×10^7 cells were co-transfected with 25 μg of the InsP3R cDNA, 25 μg of the muscarinic type 3 (M3) receptor, and 4 μg of the red fluorescent protein plasmid pHcRed1-N1. Cells were incubated with DNA in 500 μL of Optimem media on ice for 10 minutes. The cell/DNA mixture was electroporated, incubated on ice for 30 minutes, brought up to 5 ml with Optimem and placed in a 5% C02 incubator at 39° C. for 5 hours. The cells were then centrifuged and resuspended in 12 ml of complete RPMI media. Transfection efficiency was typically ˜20%. Experiments were performed within 32 hours of transfection.\n(§2) Transfected DT-40 3ko cells were washed once in a HEPES-buffered physiological saline solution (HEPES-PSS) containing (in mM) 5.5 glucose, 137 NaCl, 0.56 MgCl2, 4.7 KCl, 1 Na2HPO4, 10 HEPES (pH 7.4), 1.2 CaCl2 and 1% w/v Bovine Serum Albumin. Cells were then resuspended in BSA HEPES-PSS with 1 μM Fura-2 (AM), placed on a 15 mm glass coverslip in a low volume perfusion chamber (Warner Instruments) and allowed to adhere for 30 minutes at room temperature. Cells were perfused continually for 10 minutes with HEPES-PSS before experimentation to allow Fura-2 de-esterification. A field of cells for each experiment was chosen that contained a wide range of transfection efficiency based upon the intensity of red fluorescence emitted when excited at 560 nm. [Ca^2+]i imaging was performed essentially as previously described using an inverted epifluorescence Nikon microscope with a 40× oil immersion objective lens (numerical aperture, 1.3). Cells were excited alternately with light at 340 and 380 nm (±10 mn bandpass filters, Chroma) using a monochrometer (TILL Photonics). Fluorescence images were captured and digitized with a digital camera driven by TILL Photonics software. Images were captured every 2 seconds with an exposure of 35 ms and no binning. 340/380 ratio images were calculated online and stored immediately to hard disk.\n(§3) The effects of treatment were determined by normalizing the peak change in fluorescence ratio by stimulation following forskolin or 8-Br cGMP exposure to that of stimulation in control HEPES-PSS. Thus, pooled data represents a normalized fold increase over control for the treated trial. Two tailed heteroscedastic t-tests with P values<0.05 were considered to have statistical significance.\nSimilar experimental paradigms were employed to assess the effect of PKA-induced phosphorylation on a homogeneous population of S2^− InsP3R-1.\n(§4) The effects of treatment were determined by normalizing the peak change in fluorescence ratio by stimulation following forskolin or 8-Br-cGMP exposure to that of stimulation in control HEPES-PSS. Thus, pooled data represent a normalized fold increase over control for the treated trial. In all cases where statistical significance is indicated, two-tailed heteroscedastic t tests were performed. P values<0.05 were considered to indicate statistical significance and are denoted by an asterisk in the figures.\nThe enhanced apparent sensitivity of individual phosphomimetic mutants was essentially equal and intermediate between the sensitivity of the S2−WT and S2−EE mutations. […] To address this possibility directly, experiments were performed evaluating the effects of activating endogenous PKA in cells expressing S2−SE or S2−ES to mimic prior phosphorylation of an individual site. […] To test this, experiments were performed to determine the phosphorylation state of the various mutants after raising cAMP levels. These experiments were performed in HEK-293 cells because of the high transfection efficiency and low endogenous levels of InsP3R-1 (47, 99). […]"}, "[2]": {"system": "S2+ InsP3R-1", "assay": "Potentiation of CCh-induced Ca2+ release after PKA activation (forskolin), S2+ InsP3R-1 constructs in DT-40 3ko cells", "format": "cell-based, rat", "conditions": "for effect of forskolin treatment on CCh-induced [Ca^2+]i peak: 20 μM forskolin, threshold CCh; for Ca^2+ release after PKA activation: S2 + InsP3R-1 constructs, Table 2", "experimental": "as §1, §2, §3\nExperiments were performed in DT-40 3ko cells transfected with S2^+ InsP3R-1. Since there are no reports of Gαq coupled receptors expressed in DT-40 cells, initial experiments were performed eliciting [Ca^2+]i changes by stimulating the endogenous B cell receptor with α-IgM antibody. […] Thus, in all further experiments, DT-40 3ko cells were co-transfected with the M3 receptor, and HcRed to facilitate identification of transfected cells (inset FIG. 1). Stimulation of M3 receptors with the muscarinic agonist carbachol (CCh), provided a convenient means of stimulating [Ca^2+]i changes, presumably through Gαq-induced activation of phospholipase C and production of InsP3. […] The potentiation was most marked when threshold elevations in [Ca^2+]i were evoked by the initial exposure to CCh and therefore only cells in which the initial CCh treatment evoked a Δ 340/380 ratio of<0.2 ratio units were included for analysis. […] [Ca^2+]i changes were never evoked by CCh treatment in cells transfected with only M3 cDNA in the absence of InsP3R or likewise InsP3R with no M3 cDNA.\nas §4, with “P values<0.05 were considered to indicate statistical significance and are denoted by an asterisk in the figures.” left out"}}, "note": "“And” between values parts separate entries of the source, which are not always exact repeats. Identical values can stand only once. “Also recorded” adds a separate entry of the source."}
{"substance": "G1690A: InsP3R-1 S2− variant with glycine to alanine substitution at position 1690 (nucleotide binding site mutant)", "values": [{"measurement": "effect of forskolin treatment on CCh-induced [Ca^2+]i peak", "setting": "[1]; 20 μM forskolin", "value": "strikingly absent; also recorded: fails to potentiate"}]}
{"substance": "S2+ES: S2+ InsP3R-1, long splice variant with S1589E", "values": [{"measurement": "effect of forskolin treatment on CCh-induced [Ca^2+]i peak", "setting": "[2]", "value": "marked potentiation; also recorded: markedly potentiated"}, {"measurement": "Ca^2+ release after PKA activation", "setting": "[2]", "value": "Enhanced"}]}
{"substance": "S2+SE: phosphomimetic S2+ InsP3R-1, long splice variant of S1755E", "values": [{"measurement": "effect of forskolin treatment on CCh-induced [Ca^2+]i peak", "setting": "[2]", "value": "no further potentiation"}, {"measurement": "Ca^2+ release after PKA activation", "setting": "[2]", "value": "No change"}]}
{"substance": "S2−EE: phosphomimetic S1589E/S1755E mutant of the short splice variant", "values": [{"measurement": "effect of forskolin treatment on CCh-induced [Ca^2+]i peak", "setting": "[1]; 20 μM forskolin", "value": "no potentiation"}, {"measurement": "Ca^2+ release after PKA activation", "setting": "[1]", "value": "No change/NT"}]}
{"substance": "S2−ES: phosphomimetic short splice variant S1589E", "values": [{"measurement": "effect of forskolin treatment on CCh-induced [Ca^2+]i peak", "setting": "[1]; 20 μM forskolin", "value": "no potentiation"}, {"measurement": "Ca^2+ release after PKA activation", "setting": "[1]", "value": "No change/NT"}]}
{"substance": "S2−SE: phosphomimetic short splice variant of S1755E", "values": [{"measurement": "effect of forskolin treatment on CCh-induced [Ca^2+]i peak", "setting": "[1]; 20 μM forskolin", "value": "no potentiation"}, {"measurement": "Ca^2+ release after PKA activation", "setting": "[1]", "value": "No change/NT"}]}
{"substance": "S2−WT: wild-type rat type-1 InsP3 receptor, peripheral short S2− splice variant (SEQ ID NO: 17)", "values": [{"measurement": "effect on subsequent CCh-induced Ca^2+ release", "setting": "[1]; 100 nM, 500 nM or 1 μM forskolin", "value": "failed to enhance"}, {"measurement": "fold potentiation of Ca^2+ release", "setting": "[1]; 5 μM forskolin (threshold concentration)", "value": "1.26±0.21", "unit": "fold"}, {"measurement": "fold increase in CCh-induced Ca^2+ release in the presence of forskolin", "setting": "[1]; 20 μM forskolin, Fura-2, listed as wild-type S2^− InsP3R-1", "value": "~3 fold and ~4 fold"}, {"measurement": "effect of forskolin treatment on CCh-induced [Ca^2+]i peak", "setting": "[1]; 20 μM forskolin", "value": "dramatic potentiation; also recorded: markedly potentiated"}, {"measurement": "effect of forskolin treatment on CCh-induced [Ca^2+]i peak", "setting": "[1]; 20 μM forskolin, listed as S2^− InsP3R-1", "value": "potentiated Ca^2+ release"}, {"measurement": "effect of forskolin treatment on CCh-induced [Ca^2+]i peak", "setting": "[1]; 20 μM forskolin, listed as wild type S2^− InsP3R-1", "value": "enhanced CCh stimulated Ca^2+ release"}, {"measurement": "effect of forskolin treatment on CCh-induced [Ca^2+]i peak", "setting": "[1]; 20 μM forskolin, listed as wild-type S2^− InsP3R-1", "value": "marked potentiation"}, {"measurement": "Ca^2+ release after PKA activation", "setting": "[1]", "value": "Enhanced"}]}
